In patent US10907099B2, “Compound, composition, cured object, optically anisotropic body, and reflective film” (FUJIFILM Corporation, priority 2016, dated 2021):

Tests used:
[1] = Measurement of light fastness (residual rate after ultraviolet irradiation); assay type: physicochemical; conditions: for Evaluation of light fastness: 5 mg in acetonitrile 20 ml, 1 cm quartz cell, ultraviolet light 3 J/cm^2, residual rate by liquid chromatography; for light fastness (in words): based on the results in Table 1
Description: Each (5 mg) of the compounds was dissolved in acetonitrile (20 ml), sealed in a 1 cm quartz cell, and the quartz cell was irradiated with ultraviolet light under a condition of 3 J/cm^2 using EXECURE 3000-W manufactured by HOYA-SCHOTT CORPORATION, so that a residual rate of each compound was measured. Amounts (masses) of each compound before and after light irradiation were calculated using liquid chromatography. In the table, “A” represents a residual rate of equal to or greater than 80%, “B” represents a residual rate of equal to or greater than 50% and less than 80%, and “C” represents a residual rate of less than 50%.

[2] = Solubility measurement in ethyl methyl ketone; assay type: physicochemical; conditions: concentration (% by mass) of compound completely dissolved in ethyl methyl ketone
Description: Ethyl methyl ketone was added dropwise to each of the compounds, and a concentration (% by mass) of the compound in the obtained ethyl methyl ketone solution in a case where the compound was completely dissolved in the solution was measured as “solubility”. It is intended that a higher numerical value of solubility indicates excellent solubility in ethyl methyl ketone.

| Compound | Evaluation of light fastness [1] | light fastness (in words) [1] | Solubility (MEK) [2] |
| --- | --- | --- | --- |
| C=CC(=O)OCCCCCCOc1ccc(C(=O)Oc2ccc(C#Cc3ccc(CCCCCCC)cc3)cc2)cc1 [Comparative Compound b-1, reference compound] | C (residual rate of less than 50%) | does not satisfy the desired requirement for light fastness |  |
| C=CC(=O)OCCCCOc1ccc(C#Cc2ccc(NC(=O)C(=O)Nc3ccc(C#Cc4ccc(OCCCCOC(=O)C=C)cc4)cc3C(F)(F)F)c(C(F)(F)F)c2)cc1 [Compound a-1] | A (residual rate of equal to or greater than 80%) | excellent in light fastness | 2% |
| C=CC(=O)OCCCCOc1ccc(C#Cc2cc(C)c(NC(=O)C(=O)Nc3ccc(C#Cc4ccc(OCCCCOC(=O)C=C)cc4)cc3C(F)(F)F)c(C)c2)cc1 [Compound a-2] | A (residual rate of equal to or greater than 80%) | excellent in light fastness | 14% |
